# Data as given in US8613914B2, “Peptidomimetic sulfamide compounds and antiviral uses thereof” (Novartis AG, priority 2009, dated 2013).
# Target: HCV NS3-4A serine protease (full-length NS3-4A protein) (Hepatitis C virus genotype 1a (isolate 1) (HCV), UniProt P26664)
# Assay: HCV NS3-4A protease assay
# Assay type: biochemical, HCV genotype 1a
# Settings: strain HCV-1, fluorogenic peptide substrate, read-out: Protease assay Ex. 12 IC50
# Description: The inhibitory activity of certain compounds of Table A against HCV NS3-4A serine protease is determined in a homogenous assay using the full-length NS3-4A protein (genotype 1a, strain HCV-1) and a commercially available internally-quenched fluorogenic peptide substrate as described by Taliani, M., et al. 1996 Anal. Biochem. 240:60-67, which is incorporated by reference in its entirety.
# HCV NS3-4A serine protease (full-length NS3-4A protein), sequence (P26664 1027-1657): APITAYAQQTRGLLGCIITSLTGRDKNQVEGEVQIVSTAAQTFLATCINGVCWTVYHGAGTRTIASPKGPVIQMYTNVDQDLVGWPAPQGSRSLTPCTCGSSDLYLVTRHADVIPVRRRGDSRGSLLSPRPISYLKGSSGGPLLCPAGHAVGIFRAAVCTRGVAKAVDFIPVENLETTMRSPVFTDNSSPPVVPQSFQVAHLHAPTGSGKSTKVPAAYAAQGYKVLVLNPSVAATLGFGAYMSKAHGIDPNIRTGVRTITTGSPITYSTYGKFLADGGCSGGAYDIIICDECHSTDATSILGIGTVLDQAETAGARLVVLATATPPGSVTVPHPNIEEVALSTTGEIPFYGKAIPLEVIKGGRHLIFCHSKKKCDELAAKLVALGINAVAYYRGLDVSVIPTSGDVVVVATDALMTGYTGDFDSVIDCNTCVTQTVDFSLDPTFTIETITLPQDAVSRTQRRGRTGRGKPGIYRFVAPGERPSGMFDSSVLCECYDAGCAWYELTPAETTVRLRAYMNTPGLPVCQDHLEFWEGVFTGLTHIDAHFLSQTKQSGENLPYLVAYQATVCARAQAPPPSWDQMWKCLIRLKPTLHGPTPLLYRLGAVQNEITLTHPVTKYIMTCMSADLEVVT
# HCV NS3-4A serine protease (full-length NS3-4A protein), sequence (P26664 1658-1711 partner): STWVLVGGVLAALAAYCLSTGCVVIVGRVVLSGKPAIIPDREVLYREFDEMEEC
row,SMILES,IC50
1,"C=C[C@@H]1C[C@]1(NC(=O)[C@@H]1C[C@@]2(CN1C(=O)[C@@H](NC(=O)[C@@H](NC(=O)[C@@H]1CCCCN1C(C)C)C1CCCCC1)C(C)(C)C)C(C)(C)C21CCC1)C(=O)NS(=O)(=O)N1CCC(F)(F)C1 [Compound 143, (5R,8S)-7-[(2S)-2-{[(2S)-2-cyclohexyl-2-({[(2S)-1-isopropylpiperidin-2-yl]carbonyl}amino)acetyl]amino}-3,3-dimethylbutanoyl]-N-[(1R,2S)-1-{[(3,3-difluoropyrrolidin-1-yl)sulfonyl]carbamoyl}-2-vinylcyclopropyl]-10,10-dimethyl-7-azadispiro[3.0.4.1]decane-8-carboxamide]",3 nM
2,"C=C[C@@H]1C[C@]1(NC(=O)[C@@H]1C[C@@]2(CN1C(=O)[C@@H](NC(=O)[C@@H](NC(=O)[C@@H]1SCCN1CC)C1CCCCC1)C(C)(C)C)C(C)(C)C21CCC1)C(=O)NS(=O)(=O)N1CCCC1 [Compound 144, (5R,8S)-7-[(2S)-2-{[(2S)-2-cyclohexyl-2-({[(2S)-3-ethyl-1,3-thiazolidin-2-yl]carbonyl}amino)acetyl]amino}-3,3-dimethylbutanoyl]-10,10-dimethyl-N-{(1R,2S)-1-[(pyrrolidin-1-ylsulfonyl)carbamoyl]-2-vinylcyclopropyl}-7-azadispiro[3.0.4.1]decane-8-carboxamide]",9 nM
3,"C=C[C@@H]1C[C@]1(NC(=O)[C@@H]1C[C@@]2(CN1C(=O)[C@@H](NC(=O)[C@@H](NC(=O)[C@@H]1CCCN1CC)C1(C)CCCCC1)C1(C)CCOCC1)C(C)(C)C21CCC1)C(=O)NS(=O)(=O)N1CCCC1 [Compound 146, (5R,8S)-7-[(2S)-2-{[(2S)-2-({[(2S)-1-ethylpyrrolidin-2-yl]carbonyl}amino)-2-(1-methylcyclohexyl)acetyl]amino}-2-(4-methyltetrahydro-2H-pyran-4-yl)acetyl]-10,10-dimethyl-N-{(1R,2S)-1-[(pyrrolidin-1-ylsulfonyl)carbamoyl]-2-vinylcyclopropyl}-7-azadispiro[3.0.4.1]decane-8-carboxamide]",3 nM
4,"C=C[C@@H]1C[C@]1(NC(=O)[C@@H]1C[C@@]2(CN1C(=O)[C@@H](NC(=O)[C@@H](NC(=O)[C@@H]1CCCCN1C(C)C)C1(C)CCCCC1)C1(C)CCOCC1)C(C)(C)C21CCC1)C(=O)NS(=O)(=O)N1CCCC1 [Compound 147, (5R,8S)-7-[(2S)-2-{[(2S)-2-({[(2S)-1-isopropylpiperidin-2-yl]carbonyl}amino)-2-(1-methylcyclohexyl)acetyl]amino}-2-(4-methyltetrahydro-2H-pyran-4-yl)acetyl]-10,10-dimethyl-N-{(1R,2S)-1-[(pyrrolidin-1-ylsulfonyl)carbamoyl]-2-vinylcyclopropyl}-7-azadispiro[3.0.4.1]decane-8-carboxamide]",1.5 nM
5,"[2H]C([2H])([2H])N(C([2H])([2H])[2H])S(=O)(=O)NC(=O)[C@@]1(NC(=O)[C@@H]2C[C@@]3(CN2C(=O)[C@@H](NC(=O)[C@@H](NC(=O)[C@@H]2CCCCN2C(C)C)C2CCCCC2)C(C)(C)C)C(C)(C)C32CCC2)C[C@H]1C=C [Compound 148, (5R,8S)-7-[(2S)-2-{[(2S)-2-cyclohexyl-2-({[(2S)-1-isopropylpiperidin-2-yl]carbonyl}amino)acetyl]amino}-3,3-dimethylbutanoyl]-N-[(1R,2S)-1-{[(d6-dimethylamino)sulfonyl]carbamoyl}-2-vinylcyclopropyl]-10,10-dimethyl-7-azadispiro[3.0.4.1]decane-8-carboxamide-d6]",0.8 nM
6,"[2H]C([2H])([2H])C([2H])([2H])N(C([2H])([2H])C([2H])([2H])[2H])S(=O)(=O)NC(=O)[C@@]1(NC(=O)[C@@H]2C[C@@]3(CN2C(=O)[C@@H](NC(=O)[C@@H](NC(=O)[C@@H]2CCCCN2C(C)C)C2CCCCC2)C(C)(C)C)C(C)(C)C32CCC2)C[C@H]1C=C [Compound 149, (5R,8S)-7-[(2S)-2-{[(2S)-2-cyclohexyl-2-({[(2S)-1-isopropylpiperidin-2-yl]carbonyl}amino)acetyl]amino}-3,3-dimethylbutanoyl]-N-[(1R,2S)-1-{[(d10-diethylamino)sulfonyl]carbamoyl}-2-vinylcyclopropyl]-10,10-dimethyl-7-azadispiro[3.0.4.1]decane-8-carboxamide-d10]",1.5 nM
7,"C=C[C@@H]1C[C@]1(NC(=O)[C@@H]1C[C@@]2(CN1C(=O)[C@@H](NC(=O)[C@@H](NC(=O)[C@@H]1CCCCN1C(C)C)C1CCCCC1)C1(C)CCOCC1)C(C)(C)C21CCC1)C(=O)NS(=O)(=O)N(CC)CC [Compound 150, (5R,8S)-7-[(2S)-2-{[(2S)-2-cyclohexyl-2-({[(2S)-1-isopropylpiperidin-2-yl]carbonyl}amino)acetyl]amino}-2-(4-methyltetrahydro-2H-pyran-4-yl)acetyl]-N-[(1R,2S)-1-{[(diethylamino)sulfonyl]carbamoyl}-2-vinylcyclopropyl]-10,10-dimethyl-7-azadispiro[3.0.4.1]decane-8-carboxamide]",2.4 nM
8,"C=C[C@@H]1C[C@]1(NC(=O)[C@@H]1C[C@@]2(CN1C(=O)[C@@H](NC(=O)[C@@H](NC(=O)[C@@H]1CCCCN1CC)C1CCCCC1)C1(C)CCOCC1)C(C)(C)C21CCC1)C(=O)NS(=O)(=O)N(CC)CC [Compound 151, (5R,8S)-7-[(2S)-2-{[(2S)-2-cyclohexyl-2-({[(2S)-1-ethylpiperidin-2-yl]carbonyl}amino)acetyl]amino}-2-(4-methyltetrahydro-2H-pyran-4-yl)acetyl]-N-[(1R,2S)-1-{[(diethylamino)sulfonyl]carbamoyl}-2-vinylcyclopropyl]-10,10-dimethyl-7-azadispiro[3.0.4.1]decane-8-carboxamide]",2 nM
9,"C=C[C@@H]1C[C@]1(NC(=O)[C@@H]1C[C@@]2(CN1C(=O)[C@@H](NC(=O)[C@@H](NC(=O)[C@@H]1CCCCN1C(C)C)C1(C)CCCCC1)C1(C)CCOCC1)C(C)(C)C21CCC1)C(=O)NS(=O)(=O)N(CC)CC [Compound 152, (5R,8S)-N-[(1R,2S)-1-{[(diethylamino)sulfonyl]carbamoyl}-2-vinylcyclopropyl]-7-[(2S)-2-{[(2S)-2-({[(2S)-1-isopropylpiperidin-2-yl]carbonyl}amino)-2-(1-methylcyclohexyl)acetyl]amino}-2-(4-methyltetrahydro-2H-pyran-4-yl)acetyl]-10,10-dimethyl-7-azadispiro[3.0.4.1]decane-8-carboxamide]",1.1 nM
10,"C=C[C@@H]1C[C@]1(NC(=O)[C@@H]1C[C@@]2(CN1C(=O)[C@@H](NC(=O)[C@@H](NC(=O)[C@@H]1CCCN1CC)C1(C)CCCCC1)C1(C)CCOCC1)C(C)(C)C21CCC1)C(=O)NS(=O)(=O)N(CC)CC [Compound 153, (5R,8S)-N-[(1R,2S)-1-{[(diethylamino)sulfonyl]carbamoyl}-2-vinylcyclopropyl]-7-[(2S)-2-{[(2S)-2-({[(2S)-1-ethylpyrrolidin-2-yl]carbonyl}amino)-2-(1-methylcyclohexyl)acetyl]amino}-2-(4-methyltetrahydro-2H-pyran-4-yl)acetyl]-10,10-dimethyl-7-azadispiro[3.0.4.1]decane-8-carboxamide]",1.8 nM
11,"C=C[C@@H]1C[C@]1(NC(=O)[C@@H]1C[C@@]2(CN1C(=O)[C@@H](NC(=O)[C@@H](NC(=O)[C@@H]1CCCN1CC)C1CCCCC1)C1(C)CCOCC1)C(C)(C)C21CCC1)C(=O)NS(=O)(=O)N(CC)CC [Compound 154, (5R,8S)-7-[(2S)-2-{[(2S)-2-cyclohexyl-2-({[(2S)-1-ethylpyrrolidin-2-yl]carbonyl}amino)acetyl]amino}-2-(4-methyltetrahydro-2H-pyran-4-yl)acetyl]-N-[(1R,2S)-1-{[(diethylamino)sulfonyl]carbamoyl}-2-vinylcyclopropyl]-10,10-dimethyl-7-azadispiro[3.0.4.1]decane-8-carboxamide]",2.8 nM
12,"C=C[C@@H]1C[C@]1(NC(=O)[C@@H]1C[C@@]2(CN1C(=O)[C@@H](NC(=O)[C@@H](NC(=O)[C@@H]1CCCCN1C(C)C)C1CCCCC1)C(C)(C)C)C(C)(C)C21CCC1)C(=O)NS(=O)(=O)N(CC)CC(F)F [Compound 155, (5R,8S)-7-[(2S)-2-{[(2S)-2-cyclohexyl-2-({[(2S)-1-isopropylpiperidin-2-yl]carbonyl}amino)acetyl]amino}-3,3-dimethylbutanoyl]-N-[(1R,2S)-1-({[(2,2-difluoroethyl)(ethyl)amino]sulfonyl}carbamoyl)-2-vinylcyclopropyl]-10,10-dimethyl-7-azadispiro[3.0.4.1]decane-8-carboxamide]",4.4 nM
13,"C=C[C@@H]1C[C@]1(NC(=O)[C@@H]1C[C@@]2(CN1C(=O)[C@@H](NC(=O)[C@@H](NC(=O)[C@@H]1CCCCN1C(C)C)C1CCCCC1)C(C)(C)C)C(C)(C)C21CCC1)C(=O)NS(=O)(=O)N(CC)CCF [Compound 156, (5R,8S)-7-[(2S)-2-{[(2S)-2-cyclohexyl-2-({[(2S)-1-isopropylpiperidin-2-yl]carbonyl}amino)acetyl]amino}-3,3-dimethylbutanoyl]-N-[(1R,2S)-1-({[ethyl(2-fluoroethyl)amino]sulfonyl}carbamoyl)-2-vinylcyclopropyl]-10,10-dimethyl-7-azadispiro[3.0.4.1]decane-8-carboxamide]",1.3 nM
14,"C=C[C@@H]1C[C@]1(NC(=O)[C@@H]1C[C@@]2(CN1C(=O)[C@@H](NC(=O)[C@@H](NC(=O)[C@@H]1CCCN1CC)C1(C)CCOCC1)C1(C)CCCCC1)C(C)(C)C21CCC1)C(=O)NS(=O)(=O)N(CC)CC [Compound 157, (5R,8S)-N-[(1R,2S)-1-{[(diethylamino)sulfonyl]carbamoyl}-2-vinylcyclopropyl]-7-[(2S)-2-{[(2S)-2-({[(2S)-1-ethylpyrrolidin-2-yl]carbonyl}amino)-2-(4-methyltetrahydro-2H-pyran-4-yl)acetyl]amino}-2-(1-methylcyclohexyl)acetyl]-10,10-dimethyl-7-azadispiro[3.0.4.1]decane-8-carboxamide]",1 nM
